Measured values published in PMC8697972, “New Auranofin Analogs with Antibacterial Properties against Burkholderia Clinical Isolates” (Antibiotics, 2021).
Values after ≈ are worked out from the molar mass of the structure shown. Like-named read-outs stand apart in the source and are kept apart here.

Experiments:
[1] = tested on: B. contaminans FFH-2050MA; assay type: cell-based, Burkholderia contaminans
B. multivorans ATCC17616 = assay type: cell-based, Burkholderia multivorans
B. cenocepacia K56-2 [2] = assay type: cell-based, Burkholderia cenocepacia; conditions: 18 h
B. lata BCC6 = assay type: cell-based, Burkholderia lata
B. dolosa CEP021 = assay type: cell-based, Burkholderia dolosa
B. ubonensis LMG 20358 = assay type: cell-based, Burkholderia ubonensis
B. cenocepacia 140485 = assay type: cell-based, Burkholderia cenocepacia
B. contaminans FFH-4004 = assay type: cell-based, Burkholderia contaminans
B. contaminans MF16 = assay type: cell-based, Burkholderia contaminans
[3] = tested on: Galleria mellonella larvae; assay: Galleria toxicity
[4] = tested on: Burkholderia cenocepacia K56-2; assay: Time kill assays (exponential and stationary phase); conditions: time kill, 1×, 2×, 4× MIC (DOX 4× MIC), 6 h
C. elegans DH26 = conditions: for Percent survival of C. elegans: 24 h; for Survival100/MIC Ratio: highest concentration with 100 percent survival divided by the compound's MIC
members of the Bcc = assay: MIC, summary over Bcc panel; assay type: cell-based, Burkholderia cepacia complex
B. cenocepacia K56-2 [5] = assay: Persister frequency assay; conditions: 24 h
[6] = B. cenocepacia K56-2, CAMHB, 37 °C
[7] = Burkholderia contaminans, FFH2050MA
[8] = Burkholderia multivorans, ATCC17616
[9] = Burkholderia ubonensis, LMG20358
[10] = Burkholderia cenocepacia, 140485
[11] = Burkholderia contaminans, FFH4004

## CC[P+](CC)(CC)[Au-][S]C1OC(CO)C(O)C(O)C1O (mixture of isomers) [WB-16-EO9899]
[1]; B. contaminans FFH-2050MA
  MIC: 128 µg/mL
B. multivorans ATCC17616; B. multivorans ATCC17616
  MIC: 128 µg/mL
B. cenocepacia K56-2 [2]; [6]
  MIC: > 128 µg/mL
B. lata BCC6; B. lata BCC6
  MIC: 128 µg/mL
B. dolosa CEP021; B. dolosa CEP021
  MIC: > 128 µg/mL
B. ubonensis LMG 20358; B. ubonensis LMG 20358
  MIC: > 128 µg/mL
B. cenocepacia 140485; B. cenocepacia 140485
  MIC: 32 µg/mL
B. contaminans FFH-4004; B. contaminans FFH-4004
  MIC: > 128 µg/mL
B. contaminans MF16; B. contaminans MF16
  MIC: 128 µg/mL

## C[P+](C)(C)[Au-][S]CC(O)CO (racemic) [WB-19-HL4171]
[1]; B. contaminans FFH-2050MA
  MIC: 32 µg/mL
B. multivorans ATCC17616; B. multivorans ATCC17616
  MIC: 32 µg/mL
B. cenocepacia K56-2 [2]; [6]
  MIC: 32 µg/mL
B. lata BCC6; B. lata BCC6
  MIC: 32 µg/mL
B. dolosa CEP021; B. dolosa CEP021
  MIC: 64 µg/mL
B. ubonensis LMG 20358; B. ubonensis LMG 20358
  MIC: >128 µg/mL
B. cenocepacia 140485; B. cenocepacia 140485
  MIC: 16 µg/mL
B. contaminans FFH-4004; B. contaminans FFH-4004
  MIC: 32 µg/mL
B. contaminans MF16; B. contaminans MF16
  MIC: 64 µg/mL

## CC(C)(O/N=C(\C(=O)N[C@@H]1C(=O)N2C(C(=O)[O-])=C(C[n+]3ccccc3)CS[C@H]12)c1csc(N)n1)C(=O)O [CAZ, ceftazidime, reference compound]
[1]; [7]
  MIC: 8 µg/mL (≈ 14.6 µM)
B. multivorans ATCC17616; [8]
  MIC: 16 µg/mL (≈ 29.3 µM)
B. cenocepacia K56-2 [2]; Burkholderia cenocepacia
  MIC: 32 µg/mL (≈ 58.5 µM)
B. lata BCC6; Burkholderia lata, BCC6
  MIC: 64 µg/mL (≈ 117 µM)
B. dolosa CEP021; Burkholderia dolosa, CEP021
  MIC: 16 µg/mL (≈ 29.3 µM)
B. ubonensis LMG 20358; [9]
  MIC: 16 µg/mL (≈ 29.3 µM)
B. cenocepacia 140485; [10]
  MIC: 8 µg/mL (≈ 14.6 µM)
B. contaminans FFH-4004; [11]
  MIC: 8 µg/mL (≈ 14.6 µM)
B. contaminans MF16; Burkholderia contaminans, MF16
  MIC: 32 µg/mL (≈ 58.5 µM)

## C[C@H]1c2cccc(O)c2C(=O)C2=C(O)[C@]3(O)C(=O)C(C(N)=O)=C(O)[C@@H](N(C)C)[C@@H]3[C@@H](O)[C@@H]21 [DOX, doxycycline, reference compound]
[1]; [7]
  MIC: 2 µg/mL (≈ 4.5 µM)
B. multivorans ATCC17616; [8]
  MIC: 2 µg/mL (≈ 4.5 µM)
B. cenocepacia K56-2 [2]; Burkholderia cenocepacia
  MIC: 4 µg/mL (≈ 9 µM)
B. lata BCC6; Burkholderia lata, BCC6
  MIC: 4 µg/mL (≈ 9 µM)
[3]; 1.0 mg/kg, 24 h
  Galleria Survival: 96.7%
[3]; 1.0 mg/kg, 48 h
  Galleria Survival: 96.7%
[3]; 1.0 mg/kg, 72 h
  Galleria Survival: 96.7%
[3]; 2.0 mg/kg, 24 h
  Galleria Survival: 93.3%
[3]; 2.0 mg/kg, 48 h
  Galleria Survival: 93.3%
[3]; 2.0 mg/kg, 72 h
  Galleria Survival: 93.3%
[3]; 5.0 mg/kg, 24 h
  Galleria Survival: 93.3%
[3]; 5.0 mg/kg, 48 h
  Galleria Survival: 90.0%
[3]; 5.0 mg/kg, 72 h
  Galleria Survival: 90.0%
[3]; 10.0 mg/kg, 24 h
  Galleria Survival: 93.3%
[3]; 10.0 mg/kg, 48 h
  Galleria Survival: 93.3%
[3]; 10.0 mg/kg, 72 h
  Galleria Survival: 93.3%
[4]
  killing of stationary (non-replicating) phase cells: unable to kill cells
C. elegans DH26; 4 μg/mL
  Percent survival of C. elegans: 100%
C. elegans DH26; 8 μg/mL
  Percent survival of C. elegans: 97.4%
C. elegans DH26; 16 μg/mL
  Percent survival of C. elegans: 100%
C. elegans DH26; 32 μg/mL
  Percent survival of C. elegans: 98.2%
C. elegans DH26; 64 μg/mL
  Percent survival of C. elegans: 100%
C. elegans DH26; 128 μg/mL
  Percent survival of C. elegans: 91.5%
C. elegans DH26; 256 μg/mL
  Percent survival of C. elegans: 79.5%
C. elegans DH26
  Survival100/MIC Ratio: 16
B. dolosa CEP021; Burkholderia dolosa, CEP021
  MIC: 16 µg/mL (≈ 36 µM)
B. ubonensis LMG 20358; [9]
  MIC: 4 µg/mL (≈ 9 µM)
B. cenocepacia 140485; [10]
  MIC: 1 µg/mL (≈ 2.25 µM)
B. contaminans FFH-4004; [11]
  MIC: 8 µg/mL (≈ 18 µM)
B. contaminans MF16; Burkholderia contaminans, MF16
  MIC: 16 µg/mL (≈ 36 µM)
Members of the Bcc; Burkholderia cepacia, read-out: MIC values against some isolates from the Bcc, lowest values, some isolates
  MIC: 1 µg/mL (≈ 2.25 µM)
Members of the Bcc; lowest values, some isolates
  MIC values against some isolates from the Bcc: 2 µg/mL (≈ 4.5 µM)

## C[C@@H](O)[C@H]1C(=O)N2C(C(=O)O)=C(S[C@@H]3CN[C@H](C(=O)N(C)C)C3)[C@H](C)[C@H]12 [MEM, meropenem, reference compound]
[1]; [7]
  MIC: 4 µg/mL (≈ 10.4 µM)
B. multivorans ATCC17616; [8]
  MIC: 4 µg/mL (≈ 10.4 µM)
B. cenocepacia K56-2 [5]; 5× MIC
  persister frequency (percent survival): low amount of persisters
B. cenocepacia K56-2 [5]; 10× MIC
  persister frequency (percent survival): low amount of persisters
B. cenocepacia K56-2 [5]; 5× and 10× MIC tested, concentration not told apart
  persister frequency (percent survival): 5–7%
B. cenocepacia K56-2 [2]; Burkholderia cenocepacia
  MIC: 16 µg/mL (≈ 41.7 µM)
B. lata BCC6; Burkholderia lata, BCC6
  MIC: 4 µg/mL (≈ 10.4 µM)
C. elegans DH26; 4 μg/mL
  Percent survival of C. elegans: 100%
C. elegans DH26; 8 μg/mL
  Percent survival of C. elegans: 100%
C. elegans DH26; 16 μg/mL
  Percent survival of C. elegans: 100%
C. elegans DH26; 32 μg/mL
  Percent survival of C. elegans: 100%
C. elegans DH26; 64 μg/mL
  Percent survival of C. elegans: 100%
C. elegans DH26; 128 μg/mL
  Percent survival of C. elegans: 97.4%
C. elegans DH26; 256 μg/mL
  Percent survival of C. elegans: 93.2%
C. elegans DH26
  Survival100/MIC Ratio: 4
C. elegans DH26; listed as meropenem
  Survival100/MIC Ratio: four
B. dolosa CEP021; Burkholderia dolosa, CEP021
  MIC: 8 µg/mL (≈ 20.9 µM)
B. ubonensis LMG 20358; [9]
  MIC: 16 µg/mL (≈ 41.7 µM)
B. cenocepacia 140485; [10]
  MIC: 16 µg/mL (≈ 41.7 µM)
B. contaminans FFH-4004; [11]
  MIC: 8 µg/mL (≈ 20.9 µM)
B. contaminans MF16; Burkholderia contaminans, MF16
  MIC: 8 µg/mL (≈ 20.9 µM)

## NC[C@H]1O[C@H](O[C@H]2[C@H](O)[C@@H](O[C@H]3O[C@H](CO)[C@@H](O)[C@H](N)[C@H]3O)[C@H](N)C[C@@H]2N)[C@H](N)C[C@@H]1O [TOB, tobramycin, reference compound]
[1]; [7]
  MIC: 128 µg/mL (≈ 274 µM)
B. multivorans ATCC17616; [8]
  MIC: 64 µg/mL (≈ 137 µM)
B. cenocepacia K56-2 [2]; Burkholderia cenocepacia
  MIC: 512 µg/mL (≈ 1100 µM)
B. lata BCC6; Burkholderia lata, BCC6
  MIC: 128 µg/mL (≈ 274 µM)
B. dolosa CEP021; Burkholderia dolosa, CEP021
  MIC: 128 µg/mL (≈ 274 µM)
B. ubonensis LMG 20358; [9]
  MIC: 128 µg/mL (≈ 274 µM)
B. cenocepacia 140485; [10]
  MIC: 128 µg/mL (≈ 274 µM)
B. contaminans FFH-4004; [11]
  MIC: 64 µg/mL (≈ 137 µM)
B. contaminans MF16; Burkholderia contaminans, MF16
  MIC: 32 µg/mL (≈ 68.4 µM)
